Earlier results, collected in publication PMC9851200, “Multiparameter phenotypic screening for endogenous TFEB and TFE3 translocation identifies novel chemical series modulating lysosome function” (Autophagy, 2022).

How the values were obtained:
Parameters in all cases: method as in original PKIS2 published data
[1] = molecular target: kinases (KINOMEscan panel) (Homo sapiens, UniProt P21127); conditions: CDK11B; Published KINOMEscan; ref original PKIS2 published data; cited from earlier work
[2] = molecular target: kinases (KINOMEscan panel) (Homo sapiens, UniProt Q86Z02); conditions: HIPK1; Published KINOMEscan; ref original PKIS2 published data; cited from earlier work
Sequence of kinases (KINOMEscan panel) (Homo sapiens, UniProt Q86Z02) (Q86Z02 whole entry): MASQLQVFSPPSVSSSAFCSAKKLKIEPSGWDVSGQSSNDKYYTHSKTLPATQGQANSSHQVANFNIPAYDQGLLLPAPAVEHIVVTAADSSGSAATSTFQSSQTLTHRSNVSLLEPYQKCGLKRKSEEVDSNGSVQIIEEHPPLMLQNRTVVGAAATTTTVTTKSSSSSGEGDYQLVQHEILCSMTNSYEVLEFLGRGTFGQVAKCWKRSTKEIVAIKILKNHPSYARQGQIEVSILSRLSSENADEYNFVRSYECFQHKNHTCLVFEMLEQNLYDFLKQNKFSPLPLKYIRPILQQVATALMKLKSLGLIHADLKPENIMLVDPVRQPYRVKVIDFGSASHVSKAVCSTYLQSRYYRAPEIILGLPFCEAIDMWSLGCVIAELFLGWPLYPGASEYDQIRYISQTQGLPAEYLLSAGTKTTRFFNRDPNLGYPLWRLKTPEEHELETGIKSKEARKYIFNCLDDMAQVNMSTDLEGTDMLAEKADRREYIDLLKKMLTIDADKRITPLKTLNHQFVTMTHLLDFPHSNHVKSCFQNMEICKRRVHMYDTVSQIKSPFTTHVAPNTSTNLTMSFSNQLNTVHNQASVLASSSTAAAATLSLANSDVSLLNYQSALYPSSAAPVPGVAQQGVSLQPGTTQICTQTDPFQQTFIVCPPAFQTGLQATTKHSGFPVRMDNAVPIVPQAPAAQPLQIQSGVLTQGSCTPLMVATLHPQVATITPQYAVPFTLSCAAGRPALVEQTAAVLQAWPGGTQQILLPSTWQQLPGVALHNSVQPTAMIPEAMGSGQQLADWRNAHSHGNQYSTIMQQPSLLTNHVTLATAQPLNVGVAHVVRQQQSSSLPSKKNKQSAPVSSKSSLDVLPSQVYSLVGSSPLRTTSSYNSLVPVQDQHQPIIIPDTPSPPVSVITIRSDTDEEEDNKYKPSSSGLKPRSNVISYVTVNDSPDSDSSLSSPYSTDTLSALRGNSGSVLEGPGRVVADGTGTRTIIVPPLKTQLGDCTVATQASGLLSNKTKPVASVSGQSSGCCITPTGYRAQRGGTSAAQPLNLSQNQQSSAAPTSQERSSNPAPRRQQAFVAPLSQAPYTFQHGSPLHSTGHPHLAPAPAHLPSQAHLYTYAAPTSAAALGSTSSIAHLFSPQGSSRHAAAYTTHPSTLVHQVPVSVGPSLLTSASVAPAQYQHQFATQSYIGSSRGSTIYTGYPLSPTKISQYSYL

[3] = molecular target: kinases (KINOMEscan panel) (Homo sapiens, UniProt P53355); conditions: kinase DAPK1; Published KINOMEscan; ref original PKIS2 published data; cited from earlier work
Sequence of kinases (KINOMEscan panel) (Homo sapiens, UniProt P53355) (P53355 whole entry): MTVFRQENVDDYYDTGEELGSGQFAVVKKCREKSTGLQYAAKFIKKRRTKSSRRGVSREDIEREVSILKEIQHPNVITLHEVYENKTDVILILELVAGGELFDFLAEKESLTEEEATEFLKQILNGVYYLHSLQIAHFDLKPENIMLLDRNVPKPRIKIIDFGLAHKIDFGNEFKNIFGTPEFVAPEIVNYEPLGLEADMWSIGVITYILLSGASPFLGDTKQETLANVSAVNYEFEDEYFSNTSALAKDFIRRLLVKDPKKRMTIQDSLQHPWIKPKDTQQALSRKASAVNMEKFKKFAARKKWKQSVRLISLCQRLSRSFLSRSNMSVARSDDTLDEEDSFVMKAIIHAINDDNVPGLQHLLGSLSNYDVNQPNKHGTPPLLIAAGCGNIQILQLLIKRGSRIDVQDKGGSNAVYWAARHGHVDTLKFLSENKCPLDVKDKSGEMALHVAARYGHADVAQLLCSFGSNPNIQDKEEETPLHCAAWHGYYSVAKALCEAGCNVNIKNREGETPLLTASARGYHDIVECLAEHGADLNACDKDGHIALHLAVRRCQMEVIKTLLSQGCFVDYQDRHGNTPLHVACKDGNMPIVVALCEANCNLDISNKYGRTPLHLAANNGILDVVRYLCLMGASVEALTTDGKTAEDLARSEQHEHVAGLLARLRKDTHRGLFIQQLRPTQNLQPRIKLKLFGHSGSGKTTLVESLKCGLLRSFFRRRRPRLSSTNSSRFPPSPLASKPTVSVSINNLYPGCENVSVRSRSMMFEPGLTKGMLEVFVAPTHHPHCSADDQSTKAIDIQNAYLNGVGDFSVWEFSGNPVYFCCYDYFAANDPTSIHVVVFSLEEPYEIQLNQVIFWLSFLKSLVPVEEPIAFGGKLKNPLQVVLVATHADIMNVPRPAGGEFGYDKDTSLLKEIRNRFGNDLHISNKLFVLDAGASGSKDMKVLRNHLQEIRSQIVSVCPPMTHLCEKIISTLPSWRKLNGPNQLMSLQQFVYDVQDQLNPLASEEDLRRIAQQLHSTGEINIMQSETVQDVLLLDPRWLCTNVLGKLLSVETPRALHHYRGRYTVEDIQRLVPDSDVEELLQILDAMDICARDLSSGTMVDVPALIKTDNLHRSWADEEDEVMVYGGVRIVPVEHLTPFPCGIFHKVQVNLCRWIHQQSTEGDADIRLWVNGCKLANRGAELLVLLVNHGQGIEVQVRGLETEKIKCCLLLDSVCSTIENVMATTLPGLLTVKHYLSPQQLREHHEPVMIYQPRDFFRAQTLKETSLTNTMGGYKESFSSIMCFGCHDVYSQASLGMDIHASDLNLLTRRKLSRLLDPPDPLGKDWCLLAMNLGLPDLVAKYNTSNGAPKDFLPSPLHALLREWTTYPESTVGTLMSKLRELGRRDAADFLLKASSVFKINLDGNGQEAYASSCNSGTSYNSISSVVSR

[4] = molecular target: T1, kinases (KINOMEscan panel) (Homo sapiens, UniProt P15735); conditions: kinase PHKG2; Published KINOMEscan; ref original PKIS2 published data; cited from earlier work
T1 sequence (P15735 1-406): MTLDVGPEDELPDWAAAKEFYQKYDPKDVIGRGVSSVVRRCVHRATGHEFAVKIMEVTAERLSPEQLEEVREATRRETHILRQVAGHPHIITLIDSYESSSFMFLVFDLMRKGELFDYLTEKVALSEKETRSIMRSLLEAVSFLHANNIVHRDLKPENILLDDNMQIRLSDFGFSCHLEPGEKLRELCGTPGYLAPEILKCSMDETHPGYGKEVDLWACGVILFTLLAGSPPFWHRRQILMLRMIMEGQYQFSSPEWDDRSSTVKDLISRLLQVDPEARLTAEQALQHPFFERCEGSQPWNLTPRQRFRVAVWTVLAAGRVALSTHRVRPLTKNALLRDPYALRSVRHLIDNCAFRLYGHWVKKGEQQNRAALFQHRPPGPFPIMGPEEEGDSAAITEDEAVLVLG

[5] = molecular target: T2, kinases (KINOMEscan panel) (Homo sapiens, UniProt Q8N568); conditions: Published KINOMEscan; ref original PKIS2 published data; cited from earlier work
T2 sequence (Q8N568 1-766): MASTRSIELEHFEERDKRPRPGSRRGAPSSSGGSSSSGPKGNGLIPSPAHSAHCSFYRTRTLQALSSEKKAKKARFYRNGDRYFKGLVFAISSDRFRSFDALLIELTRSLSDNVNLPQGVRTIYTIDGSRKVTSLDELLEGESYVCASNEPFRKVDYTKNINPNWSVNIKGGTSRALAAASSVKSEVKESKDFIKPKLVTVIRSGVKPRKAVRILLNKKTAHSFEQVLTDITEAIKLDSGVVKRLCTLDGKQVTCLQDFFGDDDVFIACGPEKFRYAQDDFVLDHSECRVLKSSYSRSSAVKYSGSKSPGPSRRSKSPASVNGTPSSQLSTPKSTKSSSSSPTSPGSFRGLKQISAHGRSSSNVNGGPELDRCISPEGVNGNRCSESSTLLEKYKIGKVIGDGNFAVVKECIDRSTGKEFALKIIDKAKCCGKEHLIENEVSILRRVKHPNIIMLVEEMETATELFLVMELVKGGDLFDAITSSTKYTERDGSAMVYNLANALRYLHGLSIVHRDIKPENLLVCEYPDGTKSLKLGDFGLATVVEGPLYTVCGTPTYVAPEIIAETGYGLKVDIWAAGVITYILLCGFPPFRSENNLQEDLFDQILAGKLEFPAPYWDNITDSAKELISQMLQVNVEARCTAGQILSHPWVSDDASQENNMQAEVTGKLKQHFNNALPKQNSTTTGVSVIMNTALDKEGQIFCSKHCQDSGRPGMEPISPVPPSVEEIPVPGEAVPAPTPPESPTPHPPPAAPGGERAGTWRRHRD

[6] = molecular target: kinases (KINOMEscan panel) (Homo sapiens, UniProt P04049); conditions: RAF1; Published KINOMEscan; ref original PKIS2 published data; cited from earlier work
Sequence of kinases (KINOMEscan panel) (Homo sapiens, UniProt P04049) (P04049 whole entry): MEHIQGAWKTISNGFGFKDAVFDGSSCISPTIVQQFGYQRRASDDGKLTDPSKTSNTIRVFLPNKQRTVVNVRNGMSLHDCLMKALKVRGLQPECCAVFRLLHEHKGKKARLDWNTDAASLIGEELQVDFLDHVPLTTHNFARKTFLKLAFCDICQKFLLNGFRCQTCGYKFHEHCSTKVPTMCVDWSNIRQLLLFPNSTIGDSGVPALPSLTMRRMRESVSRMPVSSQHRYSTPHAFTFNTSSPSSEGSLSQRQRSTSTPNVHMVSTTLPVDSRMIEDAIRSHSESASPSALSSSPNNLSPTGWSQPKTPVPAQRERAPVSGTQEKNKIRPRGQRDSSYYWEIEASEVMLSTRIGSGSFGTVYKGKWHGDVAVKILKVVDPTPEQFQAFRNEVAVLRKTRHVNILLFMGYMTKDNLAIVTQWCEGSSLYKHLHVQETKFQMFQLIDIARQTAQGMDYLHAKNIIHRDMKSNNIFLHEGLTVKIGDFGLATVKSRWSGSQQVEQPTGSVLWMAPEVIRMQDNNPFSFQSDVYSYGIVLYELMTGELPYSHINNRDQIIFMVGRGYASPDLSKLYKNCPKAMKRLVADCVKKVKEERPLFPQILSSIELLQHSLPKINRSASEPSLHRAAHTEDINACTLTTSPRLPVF

[7] = molecular target: kinases (KINOMEscan panel) (Homo sapiens, UniProt Q9UIK4); conditions: kinase DAPK2; Published KINOMEscan; ref original PKIS2 published data; cited from earlier work
Sequence of kinases (KINOMEscan panel) (Homo sapiens, UniProt Q9UIK4) (Q9UIK4 whole entry): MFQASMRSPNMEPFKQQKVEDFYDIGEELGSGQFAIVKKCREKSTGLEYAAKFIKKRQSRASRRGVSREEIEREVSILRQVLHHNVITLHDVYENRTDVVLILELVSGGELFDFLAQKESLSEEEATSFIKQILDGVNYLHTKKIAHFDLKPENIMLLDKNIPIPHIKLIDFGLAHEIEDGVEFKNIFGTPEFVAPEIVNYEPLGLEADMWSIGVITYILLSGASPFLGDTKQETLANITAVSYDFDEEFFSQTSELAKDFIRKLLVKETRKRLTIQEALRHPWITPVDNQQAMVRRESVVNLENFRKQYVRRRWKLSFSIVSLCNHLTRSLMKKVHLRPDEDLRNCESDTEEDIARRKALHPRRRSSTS

[8] = molecular target: kinases (KINOMEscan panel) (Homo sapiens, UniProt Q02779); conditions: kinase MAP3K10; Published KINOMEscan; ref original PKIS2 published data; cited from earlier work
Sequence of kinases (KINOMEscan panel) (Homo sapiens, UniProt Q02779) (Q02779 whole entry): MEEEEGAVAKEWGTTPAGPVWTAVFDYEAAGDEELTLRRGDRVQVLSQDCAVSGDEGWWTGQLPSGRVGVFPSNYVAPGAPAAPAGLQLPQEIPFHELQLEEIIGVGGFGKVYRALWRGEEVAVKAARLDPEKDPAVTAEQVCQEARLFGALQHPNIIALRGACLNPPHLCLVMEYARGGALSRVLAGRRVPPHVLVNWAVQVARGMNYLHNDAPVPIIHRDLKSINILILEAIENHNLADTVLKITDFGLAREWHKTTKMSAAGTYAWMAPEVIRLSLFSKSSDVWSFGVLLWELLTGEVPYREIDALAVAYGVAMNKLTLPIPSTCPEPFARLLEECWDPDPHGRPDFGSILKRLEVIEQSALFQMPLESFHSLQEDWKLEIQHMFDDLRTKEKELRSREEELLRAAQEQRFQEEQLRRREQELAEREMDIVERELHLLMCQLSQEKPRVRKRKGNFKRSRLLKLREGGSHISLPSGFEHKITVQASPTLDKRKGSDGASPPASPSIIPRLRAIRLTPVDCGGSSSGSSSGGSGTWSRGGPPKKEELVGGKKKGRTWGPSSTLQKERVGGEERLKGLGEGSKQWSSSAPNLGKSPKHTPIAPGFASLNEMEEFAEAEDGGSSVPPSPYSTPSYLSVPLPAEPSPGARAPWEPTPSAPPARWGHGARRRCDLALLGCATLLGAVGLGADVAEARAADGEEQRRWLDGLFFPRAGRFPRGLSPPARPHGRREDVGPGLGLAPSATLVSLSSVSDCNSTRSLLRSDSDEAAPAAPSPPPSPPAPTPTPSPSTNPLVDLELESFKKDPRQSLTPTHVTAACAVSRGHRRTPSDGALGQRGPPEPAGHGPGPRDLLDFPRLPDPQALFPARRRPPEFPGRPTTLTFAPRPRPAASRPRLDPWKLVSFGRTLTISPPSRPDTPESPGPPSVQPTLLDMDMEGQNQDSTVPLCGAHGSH

SMILES: Cc1cccc(-c2nc(Nc3ccncc3)c3ccccc3n2)n1 [NK215]
- KINOMEscan CDK11B [1]: 0
- KINOMEscan HIPK1 [2]: 41
- KINOMEscan DAPK1 [3]: 0
- KINOMEscan PHKG2 [4]: 3
- KINOMEscan DCLK2 [5]: 0
- KINOMEscan RAF1 [6]: 39
- KINOMEscan DAPK2 [7]: 7
- KINOMEscan MAP3K10 [8]: 7
